The record followed here is patent publication US10836725B2, “Modulators of the integrated stress pathway” (Calico Life Sciences LLC, priority 2016, dated 2020).

Some results are limits rather than exact numbers.

This experiment has as its system ATF4 luciferase reporter. The experiment is described as follows: ATF4-Luc assay in HEK293T cells carrying the ATF4 luciferase reporter (in vitro model of VWMD). The class given is cell-based, human. The conditions noted are these: Homo sapiens, HEK-293T, 1 μg/mL tunicamycin, 7 hours, luminescence (One Glo). In outline:
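Compound at 200 nM and tunicamycin at 1 μg/mL were given together for 7 h to HEK293T cells stably transduced with an ATF4 5′-UTR-driven firefly luciferase reporter. Read-out by luminescence, reported as EC50.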
A general note: A reporter such as luciferase makes a cellular process visible.
As to `COCc1ccc(CNC(=O)C23CC(NC(=O)COc4ccc(Cl)c(F)c4)(C2)C3)cc1` [Compound 229, 3-[2-(4-chloro-3-fluorophenoxy)acetamido]-N-{[4-(methoxymethyl)phenyl]methyl]bicyclo[1.1.1]pentane-1-carboxamide], the EC50 – broadly, the concentration at which the effect is half-maximal – was > 2000 nM.
The figure for `Cc1cccc(CNC(=O)C23CCC(NC(=O)COc4ccc(Cl)c(F)c4)(CC2)CC3O)c1` (centres unmarked) [Compound 124, 4-[2-(4-chloro-3-fluorophenoxy)acetamido]-2-hydroxy-N-[(3-methylphenyl)methyl]bicyclo[2.2.2]octane-1-carboxamide] is 500 to 1000 nM; for `COc1cccc(CNC(=O)C23CCC(NC(=O)COc4ccc(Cl)c(F)c4)(CC2)CC3O)c1` (centres unmarked) [Compound 127, 4-[2-(4-chloro-3-fluorophenoxy)acetamido]-2-hydroxy-N-[(3-methoxyphenyl)methyl]bicyclo[2.2.2]octane-1-carboxamide] it is 1000 to 2000 nM.
Under `CCCCc1ccc(CNC(=O)C23CC(NC(=O)COc4ccc(Cl)c(F)c4)(C2)C3)cc1` [Compound 238, N-[(4-butylphenyl)methyl]-3-[2-(4-chloro-3-fluorophenoxy)acetamido]bicyclo[1.1.1]pentane-1-carboxamide] stands > 2000 nM.
Regarding `COc1ccc(CNC(=O)C23CCC(NC(=O)COc4ccc(Cl)c(F)c4)(CC2)CC3O)cc1` (centres unmarked) [Compound 128, 4-[2-(4-chloro-3-fluorophenoxy)acetamido]-2-hydroxy-N-[(4-methoxyphenyl)methyl]bicyclo[2.2.2]octane-1-carboxamide], the half-maximal effective concentration (EC50) is < 250 nM.
The figure for `O=C(COc1ccc(Cl)c(F)c1)NC12CC(C(=O)NCCc3c[nH]cn3)(C1)C2` [Compound 188, 3-[2-(4-chloro-3-fluorophenoxy)acetamido]-N-[2-(1H-imidazol-4-yl)ethyl]bicyclo[1.1.1]pentane-1-carboxamide] is > 2000 nM.
The figure for `O=C(COc1ccc(Cl)c(F)c1)NC12CCC(C(=O)NCc3ccc(Cl)cn3)(CC1)C(O)C2` (centres unmarked) [Compound 108, 4-[2-(4-chloro-3-fluorophenoxy)acetamido]-N-[(5-chloropyridin-2-yl)methyl]-2-hydroxybicyclo[2.2.2]octane-1-carboxamide] is < 250 nM; for `O=C(COc1ccc(Cl)c(F)c1)NC12CC(C(=O)NCc3ccc(C(F)(F)F)o3)(C1)C2` [Compound 215, 3-[2-(4-chloro-3-fluorophenoxy)acetamido]-N-{[5-(trifluoromethyl)furan-2-yl]methyl}bicyclo[1.1.1]pentane-1-carboxamide] it is > 2000 nM.
On to `Cc1csc(CNC(=O)C23CC(NC(=O)COc4ccc(Cl)c(F)c4)(C2)C3)n1` [Compound 176, 3-[2-(4-chloro-3-fluorophenoxy)acetamido]-N-[(4-methyl-1,3-thiazol-2-yl)methyl]bicyclo[1.1.1]pentane-1-carboxamide], for which the EC50 is > 2000 nM.
As to `O=C(COc1ccc(Cl)c(F)c1)NC12CC(C(=O)NCc3c(Cl)cccc3Cl)(C1)C2` [Compound 163, 3-[2-(4-chloro-3-fluorophenoxy)acetamido]-N-[(2,6-dichlorophenyl)methyl]bicyclo[1.1.1]pentane-1-carboxamide], the 50% effective concentration (EC50) is > 2000 nM.
Consider `COc1cccc(CNC(=O)C23CC(NC(=O)COc4ccc(Cl)c(F)c4)(C2)C3)n1` [Compound 232, 3-[2-(4-chloro-3-fluorophenoxy)acetamido]-N-[(6-methoxypyridin-2-yl]methyl]bicyclo[1.1.1]pentane-1-carboxamide], for which the EC50 was > 2000 nM.
Consider `O=C(COc1ccc(Cl)c(F)c1)NC12CC(C(=O)NCc3cn4ccccc4n3)(C1)C2` [Compound 191, 3-[2-(4-chloro-3-fluorophenoxy)acetamido]-N-[(imidazo[1,2-a]pyridin-2-yl)methyl]bicyclo[1.1.1]pentane-1-carboxamide], for which the concentration for a half-maximal effect (EC50) was 1000 to 2000 nM.
`O=C(COc1ccc(Cl)cc1)NC12CC(C(=O)NCCOc3ccc(F)cc3)(C1)C2` [Compound 102, 3-[2-(4-chlorophenoxy)acetamido]-N-[2-(4-fluorophenoxy)ethyl]bicyclo[1.1.1]-pentane-1-carboxamide]: the EC50 lay in the range of 250 to 500 nM.
In the case of `CC(NC(=O)C12CCC(NC(=O)COc3ccc(Cl)c(F)c3)(CC1)CC2O)c1cccnc1` (centres unmarked) [Compound 140, 4-[2-(4-chloro-3-fluorophenoxy)acetamido]-2-hydroxy-N-[1-(pyridin-3-yl)ethyl]bicyclo[2.2.2]octane-1-carboxamide], the concentration giving a half-maximal response (EC50) was > 2000 nM.
Under `Cc1cnc(CNC(=O)C23CC(NC(=O)COc4ccc(Cl)c(F)c4)(C2)C3)o1` [Compound 177, 3-[2-(4-chloro-3-fluorophenoxy)acetamido]-N-[(5-methyl-1,3-oxazol-2-yl)methyl]bicyclo[1.1.1]pentane-1-carboxamide] stands > 2000 nM; under `O=C(COc1ccc(Cl)c(F)c1)NC12CC(C(=O)NCc3cccc(F)c3)(C1)C2` [Compound 237, 3-[2-(4-chloro-3-fluorophenoxy)acetamido]-N-[(3-fluorophenyl)methyl]bicyclo[1.1.1]pentane-1-carboxamide], > 2000 nM.
On to `CS(=O)(=O)c1ccc(CNC(=O)C23CCC(NC(=O)COc4ccc(Cl)c(F)c4)(CC2)CC3O)nc1` (centres unmarked) [Compound 121, 4-[2-(4-chloro-3-fluorophenoxy)acetamido]-2-hydroxy-N-{[5-(methanesulfonyl)pyridin-2-yl]methyl}bicyclo[2.2.2]octane-1-carboxamide], for which the 50% effective concentration (EC50) is > 2000 nM.
`O=C(COc1ccc(Cl)cc1)NC12CC(C(=O)NCCOc3ccc(Cl)cc3)(C1)C2` [Compound 100, 3-[2-(4-chlorophenoxy)acetamido]-N-[2-(4-chlorophenoxy)ethyl]bicyclo[1.1.1]-pentane-1-carboxamide]: the EC50 is < 250 nM.
Regarding `O=C(COc1ccc(Cl)c(F)c1)NC12CCC(C(=O)NCc3cccc(Cl)c3)(CC1)C(O)C2` (centres unmarked) [Compound 131, 4-[2-(4-chloro-3-fluorophenoxy)acetamido]-N-[(3-chlorophenyl)methyl]-2-hydroxybicyclo[2.2.2]octane-1-carboxamide], the 50% effective concentration (EC50) lay within 250 to 500 nM.
The figure for `O=C(COc1ccc(Cl)c(F)c1)NC12CC(C(=O)NCc3ccccc3OCC(F)F)(C1)C2` [Compound 203, 3-[2-(4-chloro-3-fluorophenoxy)acetamido]-N-{[2-(2,2-difluoroethoxy)phenyl]methyl}bicyclo[1.1.1]pentane-1-carboxamide] is > 2000 nM; for `O=C(COc1ccc(Cl)c(F)c1)NC12CCC(C(=O)NCc3cc(F)cc(C(F)(F)F)c3)(CC1)C(O)C2` (centres unmarked) [Compound 126, 4-[2-(4-chloro-3-fluorophenoxy)acetamido]-N-{[3-fluoro-5-(trifluoromethyl)phenyl]methyl}-2-hydroxybicyclo[2.2.2]octane-1-carboxamide] it is > 2000 nM.
`Cc1ccc(CNC(=O)C23CC(NC(=O)COc4ccc(Cl)c(F)c4)(C2)C3)nc1` [Compound 168, 3-[2-(4-chloro-3-fluorophenoxy)acetamido]-N-[(5-methylpyridin-2-yl)methyl]bicyclo[1.1.1]pentane-1-carboxamide]: the EC50 lay in the range of 1000 to 2000 nM.
With `Cc1ccc(CNC(=O)C23CCC(NC(=O)COc4ccc(Cl)c(F)c4)(CC2)CC3O)nc1` (centres unmarked) [Compound 142, 4-[2-(4-chloro-3-fluorophenoxy)acetamido]-2-hydroxy-N-[(5-methylpyridin-2-yl)methyl]bicyclo[2.2.2]octane-1-carboxamide], the half-maximal effective concentration (EC50) lay within 500 to 1000 nM.
Take `O=C(COc1ccc(Cl)c(F)c1)NC12CC(C(=O)NCc3noc(-c4ccccc4)n3)(C1)C2` [Compound 201, 3-[2-(4-chloro-3-fluorophenoxy)acetamido]-N-[(5-phenyl-1,2,4-oxadiazol-3-yl)methyl]bicyclo[1.1.1]pentane-1-carboxamide]: the EC50 was in the range of 1000 to 2000 nM.
The figure for `O=C(COc1ccc(Cl)c(F)c1)NC12CC(C(=O)NCc3ccncc3)(C1)C2` [Compound 233, 3-[2-(4-chloro-3-fluorophenoxy)acetamido]-N-[(pyridin-4-yl]methyl]bicyclo[1.1.1]pentane-1-carboxamide] is > 2000 nM; for `O=C(COc1ccc(Cl)c(F)c1)NC12CC(C(=O)NCCc3ccncc3)(C1)C2` [Compound 234, 3-[2-(4-chloro-3-fluorophenoxy)acetamido]-N-[2-(pyridin-4-yl)ethyl]bicyclo[1.1.1]pentane-1-carboxamide] it is > 2000 nM.
The figure for `COc1ncc(CNC(=O)C23CC(NC(=O)COc4ccc(Cl)c(F)c4)(C2)C3)cn1` [Compound 200, 3-[2-(4-chloro-3-fluorophenoxy)acetamido]-N-[(2-methoxypyrimidin-5-yl)methyl]bicyclo[1.1.1]pentane-1-carboxamide] is > 2000 nM.
On to `O=C(COc1ccc(Cl)c(F)c1)NC12CC(C(=O)NCc3ccc(OC(F)(F)F)cc3)(C1)C2` [Compound 225, 3-[2-(4-chloro-3-fluorophenoxy)acetamido]-N-{[4-(trifluoromethoxy)phenyl]methyl}bicyclo[1.1.1]pentane-1-carboxamide], for which the EC50 was > 2000 nM.
Take `O=C(COc1ccc(Cl)c(F)c1)NC12CCC(C(=O)NCc3ccc(F)cc3)(CC1)C(O)C2` (centres unmarked) [Compound 130, 4-[2-(4-chloro-3-fluorophenoxy)acetamido]-N-[(4-fluorophenyl)methyl]-2-hydroxybicyclo[2.2.2]octane-1-carboxamide]: the half-maximal effective concentration (EC50) was < 250 nM.
As to `COc1cccc(CNC(=O)C23CC(NC(=O)COc4ccc(Cl)c(F)c4)(C2)C3)c1` [Compound 216, 3-[2-(4-chloro-3-fluorophenoxy)acetamido]-N-[(3-methoxyphenyl)methyl]bicyclo[1.1.1]pentane-1-carboxamide], the EC50 is > 2000 nM.
The figure for `Cc1noc(C)c1CCCNC(=O)C12CC(NC(=O)COc3ccc(Cl)c(F)c3)(C1)C2` [Compound 220, 3-[2-(4-chloro-3-fluorophenoxy)acetamido]-N-[3-(3,5-dimethyl-1,2-oxazol-4-yl)propyl]bicyclo[1.1.1]pentane-1-carboxamide] is > 2000 nM; for `N#Cc1ccc(CNC(=O)C23CC(NC(=O)COc4ccc(Cl)c(F)c4)(C2)C3)cn1` [Compound 226, 3-[2-(4-chloro-3-fluorophenoxy)acetamido]-N-[(6-cyanopyridin-3-yl)methyl]bicyclo[1.1.1]pentane-1-carboxamide] it is > 2000 nM.
